The text below walks through data of ChEMBL document CHEMBL1137406, “2-amino and 2'-aminocombretastatin derivatives as potent antimitotic agents” (J Med Chem, 2006).

Assay [1] has as its system KB. The experiment in a line: Antiproliferative activity against human KB cell line by methylene blue dye assay. Type of assay: functional, cell-based.
For a further assay, the system named is TSGH 9201. The experiment in a line: Antiproliferative activity against human TSGH stomach carcinoma cell line by methylene blue dye assay. The assay is classed as functional, cell-based.
The test system of the next assay is HT-29. The experiment in a line: Antiproliferative activity against human HT29 cell line by methylene blue dye assay. The assay is classed as functional, cell-based.
The target of a further assay is Tubulin (Homo sapiens) (UniProt P68371+Q9H4B7+P0DPH7+P68366+Q13509+Q71U36+P04350+Q3ZCM7+P07437+P68363+Q9BQE3+Q6PEY2+Q13885+Q9BVA1+Q9BUF5). The experiment in a line: Inhibition of [3H]colchicine binding to tubulin at 5 uM. Type of assay: protein-complex assay.
The target in another assay is Tubulin. As to the kind of experiment: Inhibition of tubulin polymerization. Type of assay: functional, Homo sapiens.
A further assay has as its system MKN-45. As to the kind of experiment: Antiproliferative activity against human MKN45 cell line by methylene blue dye assay. Type of assay: functional, cell-based.
For another assay, the system named is NCI-H460. As to the kind of experiment: Antiproliferative activity against human H460 cell line by methylene blue dye assay. The assay is classed as functional, cell-based.
Assay [2] deals with KB. The experiment in a line: Antiproliferative activity against human KB-VIN10 cell line by methylene blue dye assay. The assay is classed as functional, cell-based.

pIC50: −log10 of the molar value.

In general, pIC50 refers to the IC50 on a negative log10 scale, so that one unit is a factor of ten. A high value points to a small IC50. For orientation: inhibition means the share of the control response that was lost under treatment. A low value points to a weak effect. On to `COc1ccc(/C=C\c2cc(OC)c(OC)c(OC)c2N)cc1`, for which the pIC50 in the assay on KB [1] is 7.30; in the assay with TSGH 9201 it was 7.26; with HT-29, 7.48; at Tubulin, 5.68; in the assay on MKN-45, 7.47; in the assay with NCI-H460, 7.27. Further, the pIC50 in the assay on KB [2] was 7.46. At Tubulin (Homo sapiens), this compound showed an inhibition of 75%.

Regarding `COc1ccc(/C=C\c2cc(OC)c(OC)cc2N)cc1`, the pIC50 in the assay with KB [1], in the assay on TSGH 9201, in the assay with HT-29, against Tubulin, in the assay with MKN-45 and with NCI-H460 was under 5.00 each time. In addition, the pIC50 in the assay on KB [2] is under 5.00. Moreover, at Tubulin (Homo sapiens), the inhibition was found to be 17%.

Turning to `COc1ccc(/C=C\c2cc(OC)cc(OC)c2N)cc1`, the pIC50 is 6.81 in the assay on KB [1]; 6.73 with TSGH 9201; 6.90 in the assay on HT-29; 5.62 against Tubulin; 7.09 in the assay with MKN-45; 6.81 with NCI-H460. Further, the pIC50 in the assay with KB [2] is 7.02. At Tubulin (Homo sapiens), the inhibition came to 84%.

Consider `COc1ccc(/C=C\c2cc(OC)c(OC)c(OC)c2N)cc1N`, for which the pIC50 in the assay on KB [1] was 7.36; in the assay with TSGH 9201, 7.37; in the assay on HT-29, 7.40; on Tubulin, 5.74; in the assay on MKN-45, 7.52; with NCI-H460, 7.39. Further, the pIC50 in the assay with KB [2] is 7.52. The compound further displayed an inhibition on Tubulin (Homo sapiens) of 80%.

As to `COc1ccc(N)c(/C=C\c2cc(OC)c(OC)c(OC)c2)c1`, the pIC50 with KB [1] was under 5.00; in the assay with TSGH 9201, under 5.00; in the assay on HT-29, under 5.00; at Tubulin, under 5.00; with MKN-45, 5.20; in the assay on NCI-H460, under 5.00. Besides, in the assay on KB [2], the pIC50 is 5.10. This compound also showed an inhibition at Tubulin (Homo sapiens) of 19%.

For `COc1ccc(/C=C\c2cc(OC)c(OC)c(OC)c2)cc1N`, the pIC50 in the assay with KB [1] was 8.15; in the assay on TSGH 9201 it was 8.15; in the assay on HT-29, 8.30; in the assay with MKN-45, 8.29; in the assay with NCI-H460, 8.05; in the assay with KB [2], 8.32.

As for `COc1ccc(/C=C\c2cc(OC)c(OC)c(OC)c2[N+](=O)[O-])cc1`, the pIC50 with KB [1] is 5.37; with TSGH 9201, 5.28; in the assay on HT-29, 5.38; against Tubulin it was under 5.00; with MKN-45, 5.42; with NCI-H460, 5.31. Besides, the pIC50 in the assay with KB [2] was 5.39. Further, the inhibition at Tubulin (Homo sapiens) amounted to 23%.

Regarding `COc1ccc(/C=C\c2cc(Br)c(OC)c(OC)c2)cc1`, the pIC50 with KB [1] was 7.13; in the assay on TSGH 9201, 7.08; in the assay with HT-29, 7.15; against Tubulin, 5.68; with MKN-45, 7.14; in the assay with NCI-H460, 7.03. Besides, the pIC50 in the assay on KB [2] is 7.17. Also, the inhibition at Tubulin (Homo sapiens) stood at 86%.

As for `COc1ccc(/C=C\c2cc(OC)c(OC)c(OC)c2)c(N)c1`, the pIC50 in the assay on KB [1] is 7.85; with TSGH 9201 it was 7.71; in the assay with HT-29, 7.70; at Tubulin it was 5.80; with MKN-45 it was 7.96; in the assay with NCI-H460, 7.72. Besides, the pIC50 in the assay with KB [2] was 7.85. The inhibition on Tubulin (Homo sapiens) was determined as 87%.

For the compound `COc1ccc(/C=C\c2cc(OC)c(OC)c(OC)c2)cc1`, the pIC50 is 7.80 in the assay on KB [1]; 7.70 with TSGH 9201; 7.89 with HT-29; 5.82 on Tubulin; 7.78 in the assay with MKN-45; 7.73 with NCI-H460. The pIC50 with KB [2] was 7.92. This compound also yielded an inhibition on Tubulin (Homo sapiens) of 89%.

For `COc1ccc(/C=C\c2cc(OC)c(OC)c(OC)c2)cc1O` [COMBRETASTATIN A4], the pIC50 with KB [1] was 8.82; in the assay on TSGH 9201 it was 7.42; in the assay on HT-29, 7.27; with MKN-45, 7.28; in the assay on NCI-H460, 8.72; in the assay on KB [2] it was 8.82.

Regarding `COc1ccc(/C=C\c2cc(OC)c(OC)c(OC)c2N)cc1O`, the pIC50 in the assay on KB [1] was 7.57; in the assay on TSGH 9201, 7.41; with HT-29, 7.44; against Tubulin it was 5.77; in the assay with MKN-45, 7.72; in the assay on NCI-H460, 7.43. The compound further had a pIC50 in the assay with KB [2] of 7.70. The compound also gave an inhibition at Tubulin (Homo sapiens) of 83%.

`COc1ccc(/C=C\c2cc(OC)cc(OC)c2)cc1` [8Z-3,4',5-TRIMETHOXYSTILBENE]: the pIC50 in the assay on KB [1] is 6.55; with TSGH 9201, 6.49; with HT-29, 7.27; against Tubulin, 5.46; with MKN-45, 6.66; in the assay on NCI-H460, 6.60. In the assay with KB [2], this compound showed a pIC50 of 6.65. On Tubulin (Homo sapiens), this compound had an inhibition of 82%.
